These results are taken from patent publication US11117900B2 (Vertex Pharmaceuticals Incorporated, priority 2012, dated 2021).

In this test the test system is HCT116 colorectal cancer cells. The experiment in a line: Cisplatin sensitization assay (96 h MTS cell viability).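 Further: compound concentration needed to lower the IC50 of Cisplatin alone by a set fold.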 The format is cell-based. To be noted: Cisplatin sensitization value. Summed up: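 The MTS viability read, after 1 h with reagent, followed 96 h of co-treatment at 37° C. in 5% CO2. Both compound and cisplatin were titrated 2-fold from a 10 μM top final concentration in a complete concentration matrix on HCT116 cells. Scores +++/++/+ reflect cisplatin sensitization value ranges.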
With `CN1CCN(C(=O)C2CCN(c3c(F)cncc3NC(=O)c3c(N)nn4cc(F)cnc34)C2)CC1` (centres unmarked) [I-N-191, 2-amino-6-fluoro-N-(5-fluoro-4-(3-(4-methylpiperazine-1-carbonyl)pyrrolidin-1-yl)pyridin-3-yl)pyrazolo[1,5-a]pyrimidine-3-carboxamide], the “Cisplatin Sensitization Assay” value was “+ (Compounds with a Cisplatin sensitization value >0.2 μM but <5 μM are marked with “+.”)”.

In the case of `Cc1nncn1-c1ccncc1NC(=O)c1c(N)nn2cc(F)cnc12` [I-N-263, 2-amino-6-fluoro-N-(4-(3-methyl-4H-1,2,4-triazol-4-yl)pyridin-3-yl)pyrazolo[1,5-a]pyrimidine-3-carboxamide], the “Cisplatin Sensitization Assay” value was “+ (Compounds with a Cisplatin sensitization value >0.2 μM but <5 μM are marked with “+.”)”.

Take `Nc1nn2cc(Cl)cnc2c1C(=O)Nc1cnccc1O[C@H]1CCOC1` [I-O-58, (S)-2-amino-6-chloro-N-(4-((tetrahydrofuran-3-yl)oxy)pyridin-3-yl)pyrazolo[1,5-a]pyrimidine-3-carboxamide]: the “Cisplatin Sensitization Assay” value is listed as “+++ (Compounds with a Cisplatin sensitization value of <0.02 μM are marked with “+++.”)”.

In the case of `Nc1nn2cc(F)cnc2c1C(=O)Nc1cncc(F)c1N1CCN(C(=O)C2CCN(C3COC3)CC2)CC1` [I-N-211, 2-amino-6-fluoro-N-(5-fluoro-4-(4-(1-(oxetan-3-yl)piperidine-4-carbonyl)piperazin-1-yl)pyridin-3-yl)pyrazolo[1,5-a]pyrimidine-3-carboxamide], the “Cisplatin Sensitization Assay” value was “++ (Compounds with a Cisplatin sensitization value >0.02 μM but <0.2 μM are marked with “++.”)”.

Take `CN1CCC(C(=O)N2CC=C(c3c(F)cncc3NC(=O)c3c(N)nn4cc(F)cnc34)CC2)CC1` [I-C-38, 2-amino-6-fluoro-N-(5-fluoro-1′-(1-methylpiperidine-4-carbonyl)-1′,2′,3′,6′-tetrahydro-[4,4′-bipyridin]-3-yl)pyrazolo[1,5-a]pyrimidine-3-carboxamide]: the “Cisplatin Sensitization Assay” value is “++ (Compounds with a Cisplatin sensitization value >0.02 μM but <0.2 μM are marked with “++.”)”.

Take `Nc1nn2cc(F)cnc2c1C(=O)Nc1cnccc1Oc1cccnc1` [I-O-7, 2-amino-6-fluoro-N-(4-(pyridin-3-yloxy)pyridin-3-yl)pyrazolo[1,5-a]pyrimidine-3-carboxamide]: the “Cisplatin Sensitization Assay” value is “++ (Compounds with a Cisplatin sensitization value >0.02 μM but <0.2 μM are marked with “++.”)”.

For `N#CCc1cnc2c(C(=O)Nc3cnccc3OCC(F)(F)F)c(N)nn2c1` [I-O-34, 2-amino-6-(cyanomethyl)-N-(4-(2,2,2-trifluoroethoxy)pyridin-3-yl)pyrazolo[1,5-a]pyrimidine-3-carboxamide], the “Cisplatin Sensitization Assay” value is on record as “++ (Compounds with a Cisplatin sensitization value >0.02 μM but <0.2 μM are marked with “++.”)”.

Consider `Nc1nn2cc(Cl)cnc2c1C(=O)Nc1cnccc1OC1CCNCC1` [I-O-80, 2-amino-6-chloro-N-(4-(piperidin-4-yloxy)pyridin-3-yl)pyrazolo[1,5-a]pyrimidine-3-carboxamide], for which the “Cisplatin Sensitization Assay” value is “+++ (Compounds with a Cisplatin sensitization value of <0.02 μM are marked with “+++.”)”.

Regarding `Nc1nn2cc(F)cnc2c1C(=O)Nc1cnccc1CN1CCCC1=O` [I-C-76, 2-amino-6-fluoro-N-(4-((2-oxopyrrolidin-1-yl)methyl)pyridin-3-yl)pyrazolo[1,5-a]pyrimidine-3-carboxamide], the “Cisplatin Sensitization Assay” value is “+ (Compounds with a Cisplatin sensitization value >0.2 μM but <5 μM are marked with “+.”)”.

Take `Nc1nn2cc(F)cnc2c1C(=O)Nc1cnccc1N1CCC(S(=O)(=O)C2COC2)CC1` [I-N-200, 2-amino-6-fluoro-N-(4-(4-(oxetan-3-ylsulfonyl)piperidin-1-yl)pyridin-3-yl)pyrazolo[1,5-a]pyrimidine-3-carboxamide]: the “Cisplatin Sensitization Assay” value was “+++ (Compounds with a Cisplatin sensitization value of <0.02 μM are marked with “+++.”)”.

For `CC1(C)CN(C(=O)C2CCN(c3c(F)cncc3NC(=O)c3c(N)nn4cc(F)cnc34)CC2)CCN1` [I-G-27, 2-amino-N-(4-(4-(3,3-dimethylpiperazine-1-carbonyl)piperidin-1-yl)-5-fluoropyridin-3-yl)-6-fluoropyrazolo[1,5-a]pyrimidine-3-carboxamide], the “Cisplatin Sensitization Assay” value is on record as “++ (Compounds with a Cisplatin sensitization value >0.02 μM but <0.2 μM are marked with “++.”)”.

Take `COC1(CN(C)C)CCN(c2ccncc2NC(=O)c2c(N)nn3cc(Cl)cnc23)CC1` [I-N-46, 2-amino-6-chloro-N-(4-(4-((dimethylamino)methyl)-4-methoxypiperidin-1-yl)pyridin-3-yl)pyrazolo[1,5-a]pyrimidine-3-carboxamide]: the “Cisplatin Sensitization Assay” value is “+++ (Compounds with a Cisplatin sensitization value of <0.02 μM are marked with “+++.”)”.

`COCCN1CCN(c2ccncc2NC(=O)c2c(N)nn3cc(Cl)cnc23)CC1` [I-N-60, 2-amino-6-chloro-N-(4-(4-(2-methoxyethyl)piperazin-1-yl)pyridin-3-yl)pyrazolo[1,5-a]pyrimidine-3-carboxamide]: the “Cisplatin Sensitization Assay” value was “+++ (Compounds with a Cisplatin sensitization value of <0.02 μM are marked with “+++.”)”.

On to `Nc1nn2cc(F)cnc2c1C(=O)Nc1cncc(F)c1N1CCN2CCOC[C@@H]2C1` [I-N-137, (S)-2-amino-6-fluoro-N-(5-fluoro-4-(hexahydropyrazino[2,1-c][1,4]oxazin-8(1H)-yl)pyridin-3-yl)pyrazolo[1,5-a]pyrimidine-3-carboxamide], for which the “Cisplatin Sensitization Assay” value is “++ (Compounds with a Cisplatin sensitization value >0.02 μM but <0.2 μM are marked with “++.”)”.

Consider `Cn1ccnc1-c1ccncc1NC(=O)c1c(N)nn2cc(F)cnc12` [I-C-55, 2-amino-6-fluoro-N-(4-(1-methyl-1H-imidazol-2-yl)pyridin-3-yl)pyrazolo[1,5-a]pyrimidine-3-carboxamide], for which the “Cisplatin Sensitization Assay” value is given as “+ (Compounds with a Cisplatin sensitization value >0.2 μM but <5 μM are marked with “+.”)”.

On to `COc1ccncc1NC(=O)c1c(N)nn2cc(C(C)C#N)cnc12` (centres unmarked) [I-O-21, 2-amino-6-(1-cyanoethyl)-N-(4-methoxypyridin-3-yl)pyrazolo[1,5-a]pyrimidine-3-carboxamide], for which the “Cisplatin Sensitization Assay” value is reported as “++ (Compounds with a Cisplatin sensitization value >0.02 μM but <0.2 μM are marked with “++.”)”.

On to `CC1(C)CCCN1c1ccncc1NC(=O)c1c(N)nn2cc(F)cnc12` [I-N-220, 2-amino-N-(4-(2,2-dimethylpyrrolidin-1-yl)pyridin-3-yl)-6-fluoropyrazolo[1,5-a]pyrimidine-3-carboxamide], for which the “Cisplatin Sensitization Assay” value was “++ (Compounds with a Cisplatin sensitization value >0.02 μM but <0.2 μM are marked with “++.”)”.

In the case of `Nc1nn2cc(Cl)cnc2c1C(=O)Nc1cnccc1N1CCN(C2CCC2)CC1` [I-N-48, 2-amino-6-chloro-N-(4-(4-cyclobutylpiperazin-1-yl)pyridin-3-yl)pyrazolo[1,5-a]pyrimidine-3-carboxamide], the “Cisplatin Sensitization Assay” value is “++ (Compounds with a Cisplatin sensitization value >0.02 μM but <0.2 μM are marked with “++.”)”.

As to `Nc1nn2cc(F)cnc2c1C(=O)Nc1cnccc1N1CCN(S(=O)(=O)C2CCOC2)CC1` (centres unmarked) [I-N-179, 2-amino-6-fluoro-N-(4-(4-((tetrahydrofuran-3-yl)sulfonyl)piperazin-1-yl)pyridin-3-yl)pyrazolo[1,5-a]pyrimidine-3-carboxamide], the “Cisplatin Sensitization Assay” value was “+++ (Compounds with a Cisplatin sensitization value of <0.02 μM are marked with “+++.”)”.

With `Nc1nn2cc(F)cnc2c1C(=O)Nc1cnccc1N1CCN2CCC1CC2` [I-N-18, N-(4-(1,4-diazabicyclo[3.2.2]nonan-4-yl)pyridin-3-yl)-2-amino-6-fluoropyrazolo[1,5-a]pyrimidine-3-carboxamide], the “Cisplatin Sensitization Assay” value was “++ (Compounds with a Cisplatin sensitization value >0.02 μM but <0.2 μM are marked with “++.”)”.

Turning to `Cc1nonc1N1CCN(c2ccncc2NC(=O)c2c(N)nn3cc(F)cnc23)CC1` [I-N-260, 2-amino-6-fluoro-N-(4-(4-(4-methyl-1,2,5-oxadiazol-3-yl)piperazin-1-yl)pyridin-3-yl)pyrazolo[1,5-a]pyrimidine-3-carboxamide], the “Cisplatin Sensitization Assay” value is recorded as “+++ (Compounds with a Cisplatin sensitization value of <0.02 μM are marked with “+++.”)”.

As for `CC1(S(C)(=O)=O)CCN(c2ccncc2NC(=O)c2c(N)nn3cc(F)cnc23)CC1` [I-N-243, 2-amino-6-fluoro-N-(4-(4-methyl-4-(methylsulfonyl)piperidin-1-yl)pyridin-3-yl)pyrazolo[1,5-a]pyrimidine-3-carboxamide], the “Cisplatin Sensitization Assay” value is reported as “+++ (Compounds with a Cisplatin sensitization value of <0.02 μM are marked with “+++.”)”.

Regarding `Nc1nn2cc(F)cnc2c1C(=O)Nc1cnccc1-c1cccnc1Cl` [I-C-37, 2-amino-N-(2-chloro-[3,4′-bipyridin]-3′-yl)-6-fluoropyrazolo[1,5-a]pyrimidine-3-carboxamide], the “Cisplatin Sensitization Assay” value was “+++ (Compounds with a Cisplatin sensitization value of <0.02 μM are marked with “+++.”)”.

Turning to `CN1CCCN(C(=O)C2CCN(c3c(F)cncc3NC(=O)c3c(N)nn4cc(F)cnc34)CC2)CC1` [I-G-6, 2-amino-6-fluoro-N-(5-fluoro-4-(4-(4-methyl-1,4-diazepane-1-carbonyl)piperidin-1-yl)pyridin-3-yl)pyrazolo[1,5-a]pyrimidine-3-carboxamide], the “Cisplatin Sensitization Assay” value is recorded as “+++ (Compounds with a Cisplatin sensitization value of <0.02 μM are marked with “+++.”)”.

`CN1CCC(c2c(F)cncc2NC(=O)c2c(N)nn3cc(F)cnc23)CC1` [I-C-14, 2-amino-6-fluoro-N-(5-fluoro-4-(1-methylpiperidin-4-yl)pyridin-3-yl)pyrazolo[1,5-a]pyrimidine-3-carboxamide]: the “Cisplatin Sensitization Assay” value is on record as “+ (Compounds with a Cisplatin sensitization value >0.2 μM but <5 μM are marked with “+.”)”.

Take `Nc1nn2cc(F)cnc2c1C(=O)Nc1cnccc1N1CCN([C@@H]2CCOC2)CC1` [I-N-10, (R)-2-amino-6-fluoro-N-(4-(4-(tetrahydrofuran-3-yl)piperazin-1-yl)pyridin-3-yl)pyrazolo[1,5-a]pyrimidine-3-carboxamide]: the “Cisplatin Sensitization Assay” value is “++ (Compounds with a Cisplatin sensitization value >0.02 μM but <0.2 μM are marked with “++.”)”.
